Reference: patent US20080267942A1, “BENZAZEPIN-2(1H)-ONE DERIVATIVES” (Pfizer Limited, priority 2006, published 2008)

Experiments:
[1] = biological target: T1, bovine beta-2 adrenoceptor (Bos taurus, UniProt Q28044); assay: cAMP assay in CHO cells transfected with the bovine beta-2 adrenoceptor (DiscoveRx Hit Hunter cAMP II); assay type: cell-based; conditions: CHO cells transfected with bovine beta-2 adrenoceptor, 30 minutes incubation with compound
T1 construct: expressed in transfected cells; host or cells: CHO cells
Procedure: (§1) CHO cells transfected with the bovine or porcine beta-2 adrenceptors were maintained in culture in DMEM/HAMS F12+10% FBS+2 mM glutamine+500 μg/ml geneticin (for the porcine receptor the medium was supplement with 1.5 mM HEPES) at 37° C. with a 5% CO2 atmosphere.
(§2) Cells were plated into 96 well viewplates in medium and incubated overnight at 37° C. with a 5% CO2 atmosphere. The cells were pre-incubated with 0.5 mM IBMX in PBS for 30 minutes prior to incubation with increasing concentrations of experimental compound (5×10^−12 to 10^−5M) for 30 minutes at 37° C. with a 5% CO2 atmosphere. At the end of the incubation time the compound was removed and the cells assayed for cAMP using the DiscoveRx Hit Hunter cAMP II™ assay kit.
(§3) Duplicate samples were run for each experimental compound and the data generated was analysed using EC50 analysis software in Graphpad Prism.

[2] = biological target: T2, porcine beta-2 adrenoceptor (Sus scrofa, UniProt Q28997); assay: cAMP assay in CHO cells transfected with the porcine beta-2 adrenoceptor (DiscoveRx Hit Hunter cAMP II); assay type: cell-based; conditions: CHO cells transfected with porcine beta-2 adrenoceptor, 30 minutes incubation with compound
T2 construct: expressed in transfected cells; host or cells: CHO cells
Procedure: as §1, §2, §3

T1 sequence (Q28044 whole entry): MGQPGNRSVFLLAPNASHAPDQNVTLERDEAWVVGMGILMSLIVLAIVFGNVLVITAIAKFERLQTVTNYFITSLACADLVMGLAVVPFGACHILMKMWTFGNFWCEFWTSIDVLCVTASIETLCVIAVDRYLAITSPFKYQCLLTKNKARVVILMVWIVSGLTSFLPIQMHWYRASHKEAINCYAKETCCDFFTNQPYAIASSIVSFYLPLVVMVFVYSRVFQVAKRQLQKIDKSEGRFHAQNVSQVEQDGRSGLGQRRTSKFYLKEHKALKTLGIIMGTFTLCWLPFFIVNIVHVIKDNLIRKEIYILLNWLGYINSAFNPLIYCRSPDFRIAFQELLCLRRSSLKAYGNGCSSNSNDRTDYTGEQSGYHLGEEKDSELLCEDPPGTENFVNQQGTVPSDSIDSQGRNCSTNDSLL
T2 sequence (Q28997 whole entry): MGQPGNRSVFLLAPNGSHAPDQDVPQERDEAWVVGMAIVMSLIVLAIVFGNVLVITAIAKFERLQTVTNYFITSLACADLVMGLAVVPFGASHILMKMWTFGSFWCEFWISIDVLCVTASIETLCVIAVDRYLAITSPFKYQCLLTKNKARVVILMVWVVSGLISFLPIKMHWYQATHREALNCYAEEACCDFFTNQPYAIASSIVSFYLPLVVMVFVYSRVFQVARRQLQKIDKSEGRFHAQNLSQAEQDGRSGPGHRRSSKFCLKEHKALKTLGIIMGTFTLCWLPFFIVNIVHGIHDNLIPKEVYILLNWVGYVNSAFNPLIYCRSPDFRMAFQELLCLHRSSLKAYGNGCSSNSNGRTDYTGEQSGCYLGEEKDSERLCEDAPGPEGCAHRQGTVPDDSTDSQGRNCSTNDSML

Structure (SMILES)	EC50 [1] [nM]	EC50 [2] [nM]
CC(CCc1c[nH]c2ccccc12)NC1CCn2c(=O)[nH]c3cccc(c32)C1O (single isomer, unassigned) [Example 4b, 7-Hydroxy-6-{[3-(1H-indol-3-yl)-1-methylpropyl]amino}-4,5,6,7-tetrahydroimidazo[4,5,1-jk][1]benzazepin-2(1H)-one]	3.8	6.9
CC(CCc1cncs1)N[C@@H]1CCn2c(=O)[nH]c3cccc(c32)[C@H]1O (single isomer, unassigned) [Example 6b, 7-Hydroxy-6-{[1-methyl-3-(1,3-thiazol-5-yl)propyl]amino}-4,5,6,7-tetrahydroimidazo[4,5,1-jk][1]benzazepin-2(1H)-one]	3.6	> 10000
CCOC(=O)c1[nH]c2ccccc2c1CC(C)NC1CCn2c(=O)[nH]c3cccc(c32)C1O (single isomer, unassigned) [Example 16, Ethyl 3-(2-{[7-hydroxy-2-oxo-1,2,4,5,6,7-hexahydroimidazo[4,5,1-jk][1]benzazepin-6-yl]amino}propyl)-1H-indole-2-carboxylate]	26	10
CC(CCc1c[nH]c2ccc(Cl)cc12)N[C@@H]1CCn2c(=O)[nH]c3cccc(c32)[C@H]1O (single isomer, unassigned) [Example 21b, 6-{[3-(5-Chloro-1H-indol-3-yl)-1-methylpropyl]amino}-7-hydroxy-4,5,6,7-tetrahydroimidazo[4,5,1-jk][1]benzazepin-2(1H)-one]	15	11
Cc1nc(C)c(CCC(C)N[C@@H]2CCn3c(=O)[nH]c4cccc(c43)[C@H]2O)s1 (single isomer, unassigned) [Example 23a, 6-{[3-(2,4-Dimethyl-1,3-thiazol-5-yl)-1-methylpropyl]amino}-7-hydroxy-4,5,6,7-tetrahydroimidazo[4,5,1-jk][1]benzazepin-2(1H)-one]	153	121
Cc1nc(C)c(CCC(C)N[C@@H]2CCn3c(=O)[nH]c4cccc(c43)[C@H]2O)s1 (single isomer, unassigned) [Example 23b, 6-{[3-(2,4-Dimethyl-1,3-thiazol-5-yl)-1-methylpropyl]amino}-7-hydroxy-4,5,6,7-tetrahydroimidazo[4,5,1-jk][1]benzazepin-2(1H)-one]	12	4.9
CC(CCc1c[nH]c2ccncc12)N[C@@H]1CCn2c(=O)[nH]c3cccc(c32)[C@H]1O (single isomer, unassigned) [Example 31b, 7-Hydroxy-6-{[1-methyl-3-(1H-pyrrolo[3,2-c]pyridin-3-yl)propyl]amino}-4,5,6,7-tetrahydroimidazo[4,5,1-jk][1]benzazepin-2(1H)-one]	58	43
CC(CCc1c[nH]c2cnccc12)N[C@@H]1CCn2c(=O)[nH]c3cccc(c32)[C@H]1O (single isomer, unassigned) [Example 32b, 7-Hydroxy-6-{[1-methyl-3-(1H-pyrrolo[2,3-c]pyridin-3-yl)propyl]amino}-4,5,6,7-tetrahydroimidazo[4,5,1-jk][1]benzazeiin-2(1H)-one]	96	1090
CC(CCc1cccc2cc[nH]c12)N[C@@H]1CCn2c(=O)[nH]c3cccc(c32)[C@H]1O (single isomer, unassigned) [Example 38a, 7-Hydroxy-6-{[3-(1H-indol-7-yl)-1-methylpropyl]amino}-4,5,6,7-tetrahydroimidazo[4,5,1-jk][1]benzazepin-2(1H)-one]	44	79
CC(CCc1cccc2cc[nH]c12)N[C@@H]1CCn2c(=O)[nH]c3cccc(c32)[C@H]1O (single isomer, unassigned) [Example 38b, 7-Hydroxy-6-{[3-(1H-indol-7-yl)-1-methylpropyl]amino}-4,5,6,7-tetrahydroimidazo[4,5,1-jk][1]benzazepin-2(1H)-one]	0.8	0.9
CC(CCc1cccc2cc[nH]c12)N[C@@H]1CCn2c(=O)[nH]c3cccc(c32)[C@H]1O (single isomer, unassigned) [Example 38c, 7-Hydroxy-6-{[3-(1H-indol-7-yl)-1-methylpropyl]amino}-4,5,6,7-tetrahydroimidazo[4,5,1-jk][1]benzazepin-2(1H)-one]	137	174
CC(CCc1cccnc1N)N[C@@H]1CCn2c(=O)[nH]c3cccc(c32)[C@H]1O (single isomer, unassigned) [Example 44]	1.3	1.8
Cc1nn(C)c(C)c1CCC(C)N[C@@H]1CCn2c(=O)[nH]c3cccc(c32)[C@H]1O (single isomer, unassigned) [Example 48]	3.4	3.1

Continued by falling EC50 [1], values first:

EC50 [1] [nM]	EC50 [2] [nM]	Structure (SMILES)
1830	> 10000	CC(CCc1c[nH]c2ccc(Cl)cc12)N[C@@H]1CCn2c(=O)[nH]c3cccc(c32)[C@H]1O (single isomer, unassigned) [Example 21a, 6-{[3-(5-Chloro-1H-indol-3-yl)-1-methylpropyl]amino}-7-hydroxy-4,5,6,7-tetrahydroimidazo[4,5,1-jk][1]benzazepin-2(1H)-one]
402	268	Cc1nn(C)c(C)c1CCC(C)N[C@@H]1CCn2c(=O)[nH]c3cccc(c32)[C@H]1O (single isomer, unassigned) [Example 9a, 7-Hydroxy-6-{[1-methyl-3-(1,3,5-trimethyl-1H-pyrazol-4-yl)propyl]amino}-4,5,6,7-tetrahydroimidazo[4,5,1-jk][1]benzazepin-2(1H)-one]
23	22	CC(/C=C/c1ccc2[nH]cnc2c1)N[C@@H]1CCn2c(=O)[nH]c3cccc(c32)[C@H]1O (mixture of isomers) [Example 42, 6-{[3-(1H-Benzimidazol-5-yl)-1-methylprop-2-en-1-yl]amino}-7-hydroxy-4,5,6,7-tetrahydroimidazo[4,5,1-jk][1]benzazepin-2(1H)-one]
22.9	> 10000	CC(CCc1cncs1)N[C@@H]1CCn2c(=O)[nH]c3cccc(c32)[C@H]1O (single isomer, unassigned) [Example 6a, 7-Hydroxy-6-{[1-methyl-3-(1,3-thiazol-5-yl)propyl]amino}-4,5,6,7-tetrahydroimidazo[4,5,1-jk][1]benzazepin-2(1H)-one]
16	11	CC(CCc1ccc2occc2c1)N[C@@H]1CCn2c(=O)[nH]c3cccc(c32)[C@H]1O (mixture of isomers) [Example 43, 6-{[3-(1-Benzofuran-5-yl)-1-methylpropyl]amino}-7-hydroxy-4,5,6,7-tetrahydroimidazo[4,5,1-jk][1]benzazepin-2(1H)-one]
16	28	CC(CCc1ccc2[nH]ccc2c1)N[C@@H]1CCn2c(=O)[nH]c3cccc(c32)[C@H]1O (single isomer, unassigned) [Example 37]
6.6	> 10000	Cc1ncc(CCC(C)N[C@@H]2CCn3c(=O)[nH]c4cccc(c43)[C@H]2O)s1 (single isomer, unassigned) [Example 28b, 7-Hydroxy-6-{[1-methyl-3-(2-methyll-1,3-thiazol-5-yl)propyl]amino}-4,5,6,7-tetrahydroimidazo[4,5,1-jk][1]benzazepin-2(1H)-one]
4.7	6.4	CC(CCc1cncs1)N[C@@H]1CCn2c(=O)[nH]c3cccc(c32)[C@H]1O (single isomer, unassigned) [Example 49]
4.2	2.8	Cc1nn(C)c(C)c1CCC(C)N[C@@H]1CCn2c(=O)[nH]c3cccc(c32)[C@H]1O (single isomer, unassigned) [Example 9b, 7-Hydroxy-6-{[1-methyl-3-(1,3,5-trimethyl-1H-pyrazol-4-yl)propyl]amino}-4,5,6,7-tetrahydroimidazo[4,5,1-jk][1]benzazepin-2(1H)-one]
3.2	6.9	CC(CCc1c[nH]c2ccccc12)NC1CCn2c(=O)[nH]c3cccc(c32)C1O (single isomer, unassigned) [Example 4a, 7-Hydroxy-6-{[3-(1H-indol-3-yl)-1-methylpropyl]amino}-4,5,6,7-tetrahydroimidazo[4,5,1-jk][1]benzazepin-2(1H)-one]
3	2.8	CC(CCc1ccc(N)nc1)N[C@@H]1CCn2c(=O)[nH]c3cccc(c32)[C@H]1O (single isomer, unassigned) [Example 46]
1.4	2.1	Cc1ncsc1CCC(C)N[C@@H]1CCn2c(=O)[nH]c3cccc(c32)[C@H]1O (single isomer, unassigned) [Example 34b, 7-Hydroxy-6-{[1-methyl-3-(4-methyl-1,3-thiazol-5-yl)propyl]amino}-4,5,6,7-tetrahydroimidazo[4,5,1-jk][1]benzazepin-2(1H)-one]
1.4	1.1	CC(CCc1cncc(N)c1)N[C@@H]1CCn2c(=O)[nH]c3cccc(c32)[C@H]1O (single isomer, unassigned) [Example 45]
1.2	1.3	CC(CCc1cc(Br)no1)N[C@@H]1CCn2c(=O)[nH]c3cccc(c32)[C@H]1O (single isomer, unassigned) [Example 52]
0.6	0.9	CC(CCc1cnsc1)N[C@@H]1CCn2c(=O)[nH]c3cccc(c32)[C@H]1O (single isomer, unassigned) [Example 47]
0.6	0.9	CC(CCn1cnc2ccccc21)N[C@@H]1CCn2c(=O)[nH]c3cccc(c32)[C@H]1O (single isomer, unassigned) [Example 51]
